Experiments:
[1] = test system: β-Gal-specific systemic IgG; experiment: β-Gal-specific serum IgG ELISA after i.n. or s.c. immunisation with β-Gal plus glycolipid adjuvant; type: in vivo, Balb/c mice; settings: day 38
Description: Co-administration of β-Gal with 10 μg glycolipids 1, 5 and 6 induced β-Gal-specific systemic IgG responses in Balb/c mice. Balb/c mice were immunized by the i.n. or s.c. route with β-Gal alone or together with glycolipids 1, 5 and 6 three times at 2-wk intervals. 10 days after the final immunization, the immunized mice were sacrified. The levels of β-Gal-specific systemic IgG were determined in Sera of mice immunized by the i.n. (A) and s.c. (B) route. […] The parenteral administration of with β-Gal co-administered with glycolipids 1, 5 and 6 doubled the β-Galactosidase-specific IgG titer (>500000) in comparison to animals which were immunized with β-Gal alone. Bars represent mean Ab titer or amount±SE in each group. […]
Balb/c mice were immunized by the i.n. or s.c. route with β-Gal alone or together with glycolipids 5 and 6 three times at 2-wk intervals. […] The levels of β-Gal-specific systemic IgG were determined in Sera of mice immunized by the i.n. (A) and s.c. (B) route. […]
Experimental protocol: six-eight weeks-old female BALB/c (H-2d) mice were purchased from Harlan Winkelmann GmbH (Borchen, Germany) and treated in accordance with local and European Community guidelines. […] Endpoint titers were expressed as the reciprocal log 2 of the last dilution, which gave an optical density at 405 nm of 0.1 units above the values of the negative controls after 15 to 30 min of incubation.

[2] = test system: spleen cells of immunized mice; experiment: Splenocyte proliferation ([3H]thymidine incorporation) after in vitro restimulation with β-Gal; type: in vivo, Balb/c mice; settings: i.n., 10 μg glycolipid, restimulation with β-Gal for 4 days
Description: (§1) Co-administration of β-Gal with 10 μg glycolipids 1, 5 and 6 induced a strong cellular immune responses against the β-Gal antigen in Balb/c mice. Balb/c mice were immunized by the i.n. or s.c. route with β-Gal alone or together with glycolipids 1, 5 and 6 three times at 2-wk intervals. 10 days after the final immunization, the immunized mice were sacrificed. Splenocytes of mice immunized by the i.n. (A) and s.c. (B) route were collected and cultured with different concentrations of the β-Gal-Protein for 4 days. […] Curves represent [^3H]thymidine incorporation (counts per minute, cpm) and Stimulation index (SI) in each group. Each group consists of five mice. Data are representative of three separate experiments.
as §1, with “with 20 up to 30” for “with 10”, “glycolipids” for “glycolipids 1,”, “represent [3H]thymidine incorpoaration” for “represent [^3H]thymidine incorporation”
Experimental protocol: Spleens were removed and pooled for analysis of cellular immune responses. Cells were grown in RPMI 1640 supplemented with 10% fetal calf serum, 100 U/ml of penicillin, 50 μg/ml of streptomycin, 5×10^−5 M 2-mercaptoethanol and 1 mM L-glutamine (GIBCO BRL, Karlsruhe, Germany) and maintained at 37° C. in a humidified 5% CO2 atmosphere. Spleen cell suspensions were adjusted to 5×10^6 cells/ml in complete medium, cells were seeded with 100 μl per well in a flat-bottomed 96-well microtiter plate (Nunc) and plates were incubated for 4 days. Unstimulated spleen cells were incubated in the presence of different concentrations of the new adjuvants to analyze the in vitro stimulation capacity of glycolipids 1, 5 or 6, respectively. T cellmediated immune responses were investigated at day 38 by measuring the proliferation of cells recovered from spleens after in vitro restimulation with β-Gal. Said spleen cells were obtained from vaccinated mice—said mice where immunized as described in Example 2—and incubated in the presence of different concentrations of the soluble β-Gal antigen. Each concentration was tested in triplicates. During the final 18 h of culture, 1 μCi of [^3H]thymidine (Amersham International, Freiburg, Germany) was added to each well. Cells were then harvested on paper filters (Filtermat A; Wallac, Freiburg, Germany) by using a cell harvester (Inotech, Wohlen, Switzerland), and the amount of incorporated [^3H]thymidine into the DNA of proliferating cells was determined by a β-scintillation counter (Wallac 1450, Micro-Trilux). The results are expressed as the arithmetic mean of [^3H]thymidine uptake in cpm.

β-Gal
β-Galactosidase-specific IgG titer in serum ([1]; 10 μg glycolipid + 30 μg β-Gal, three immunisations): < 1/10000 and very low antibody titers | β-Galactosidase-specific IgG titer in serum ([1]; 20 or 30 μg glycolipid + 30 μg β-Gal): < 1/10000 | Stimulation index (SI), [3H]thymidine incorporation of spleen cells [2]: no effect
